These results are taken from patent publication US6087334A, “Anti-diabetic peptides” (Amylin Pharmaceuticals, Inc., priority 1998, dated 2000).

Where a SMILES comes first, the peptide text is derived from it. Bridges are numbered along the chain shown (N, C = ends).

This assay has as its system gastric emptying in conscious rats. Conditions: rat, in vivo. From the text:
Peptide compounds of the present invention may be evaluated for amylin agonist activity using the methods of measuring the rate of gastric emptying disclosed in, for example, Young et al., Diabetologia, 38(6):642-648 (1995). In a phenol red method, which is described in Example D below, conscious rats receive by gavage an a caloric gel containing methyl cellulose and a phenol red indicator. Twenty minutes after gavage, animals are anesthetized using halothane, the stomach exposed and clamped at the pyloric and lower esophageal sphincters, removed and opened into an alkaline solution. Stomach content may be derived from the intensity of the phenol red in the alkaline solution, measured by absorbance at a wavelength of 560 nm. In a tritiated glucose method, conscious rats are gavaged with tritiated glucose in water. The rats are gently restrained by the tail, the tip of which is anesthetized using lidocaine. Tritium in the plasma separated from tail blood is collected at various timepoints and detected in a beta counter. Test compounds are normally administered about one minute before gavage.
Phenol Red Gastric Emptying Assay:
Gastric emptying was measured using a modification (Plourde et al., Life Sci. 53:857-862 (1993)) of the original method of Scarpignato et al. (Arch. Int. Pharmacodyn. Ther. 246:286-295 (1980)). Conscious rats received by gavage. 1.5 mL of an a caloric gel containing 1.5% methyl cellulose (M-0262, Sigma Chemical Co., St. Louis, Mo.) and 0.05% phenol red indicator. Twenty minutes after gavage, rats were anesthetized using 5% halothane, the stomach exposed and clamped at the pyloric and lower esophageal sphincters using artery forceps, removed and opened into an alkaline solution which was made up to a fixed volume. Stomach content was derived from the intensity of the phenol red in the alkaline solution, measured by absorbance at a wavelength of 560 nm. […] In other experiments, particulate gastric contents were centrifuged to clear the solution for absorbance measurements. Where the diluted gastric contents remained turbid, the spectroscopic absorbance due to phenol red was derived as the difference between that present in alkaline versus acidified dilutent.
In separate experiments on 7 rats, the stomach and small intestine were both excised and opened into an alkaline solution. […] Percent gastric emptying contents remaining=(absorbance at 20 min)/(absorbance at 0 min). For those compounds for which ED50 data is presented, dose response curves for gastric emptying were fitted to a 4-parameter logistic model using a least-squares iterative routine (ALLFIT, v2.7, NIH, Bethesda, Md.) to derive ED50 s. Because ED50 is log-normally distributed, it is expressed ± standard error of the logarithm. Pairwise comparisons were performed using one-way analysis of variance and the Student-Newman-Keuls multiple comparisons test (Instat v2.0, GraphPad Software, San Diego, Calif.) using P<0.05 as the level of significance.
As a reference point for dose response studies, rat amylin (Bachem, Torrance, Calif.) dissolved in 0.15M saline, was administered as a 0.1 mL subcutaneous bolus in doses of 0, 0.01, 0.1, 1, 10 or 100 μg 5 minutes before gavage in Harlan Sprague Dawley (non-diabetic) rats fasted 20 hours and diabetic BB rats fasted 6 hours.
Regarding `CC(C)C[C@H](NC(=O)[C@H](CCCNC(=N)N)NC(=O)[C@H](C)NC(=O)[C@@H](NC(=O)[C@H](C)NC(=O)[C@@H]1CSSC[C@H](NC(=O)[C@@H](N)CCCCN)C(=O)N[C@@H](CC(N)=O)C(=O)N[C@@H]([C@@H](C)O)C(=O)N[C@@H](C)C(=O)N[C@@H]([C@@H](C)O)C(=O)N1)[C@@H](C)O)C(=O)N[C@@H](C)C(=O)N[C@@H](C)C(=O)N[C@@H](Cc1ccccc1)C(=O)N[C@@H](CC(C)C)C(=O)N[C@@H](C)C(=O)N[C@@H](CCCNC(=N)N)C(=O)N[C@@H](CO)C(=O)N[C@@H](CO)C(=O)NCC(=O)N[C@@H](Cc1ccc(O)cc1)C(N)=O` [Example 1] (H-KCNTATCATARLAAFLARSSGY-NH2; disulfide 2-7), the “Example D ED50” value amounted to 0.26 µg.
The figure for `CC(C)C[C@H](NC(=O)[C@H](CCCNC(=N)N)NC(=O)[C@H](C)NC(=O)[C@@H](NC(=O)[C@H](C)NC(=O)[C@@H]1CSSC[C@H](N)C(=O)N[C@@H](CC(N)=O)C(=O)N[C@@H]([C@@H](C)O)C(=O)N[C@@H](C)C(=O)N[C@@H]([C@@H](C)O)C(=O)N1)[C@@H](C)O)C(=O)N[C@@H](C)C(=O)N[C@@H](C)C(=O)N[C@@H](Cc1ccccc1)C(=O)N[C@@H](CC(C)C)C(=O)N[C@@H](C)C(=O)N[C@@H](CCCNC(=N)N)C(=O)N[C@@H](CO)C(N)=O` [Example 3] (H-CNTATCATARLAAFLARS-NH2; disulfide 1-6) is 0.45 µg; for `CC(C)C[C@H](NC(=O)[C@H](CCCNC(=N)N)NC(=O)[C@H](C)NC(=O)[C@@H](NC(=O)[C@H](C)NC(=O)[C@@H]1CSSC[C@H](NC(=O)[C@@H](N)CCCCN)C(=O)N[C@@H](CC(N)=O)C(=O)N[C@@H]([C@@H](C)O)C(=O)N[C@@H](C)C(=O)N[C@@H]([C@@H](C)O)C(=O)N1)[C@@H](C)O)C(=O)N[C@@H](C)C(=O)N[C@@H](CC(N)=O)C(=O)N[C@@H](Cc1ccccc1)C(=O)N[C@@H](CC(C)C)C(=O)N[C@H](C(=O)N[C@@H](CCCNC(=N)N)C(=O)N[C@@H](CO)C(=O)N[C@@H](CO)C(=O)NCC(=O)N[C@@H](Cc1ccc(O)cc1)C(N)=O)C(C)C` [Example 5] (H-KCNTATCATARLANFLVRSSGY-NH2; disulfide 2-7) it is 9.3 µg.
As to `CC(C)C[C@H](NC(=O)[C@H](CCCNC(=N)N)NC(=O)[C@H](C)NC(=O)[C@@H](NC(=O)[C@H](C)NC(=O)[C@H](C)NC(=O)[C@@H](NC(=O)[C@H](CO)NC(=O)[C@@H](N)CC(C)C)[C@@H](C)O)[C@@H](C)O)C(=O)N[C@@H](C)C(=O)N[C@@H](C)C(=O)N[C@@H](Cc1ccccc1)C(=O)N[C@@H](CC(C)C)C(=O)N[C@@H](C)C(=O)N[C@@H](CCCNC(=N)N)C(=O)N[C@@H](CO)C(N)=O` [Example 6] (H-LSTAATARLAAFLARS-NH2), the “Example D ED50” value was determined as 1.34 µg.
